Here are results for five compounds from patent US9328138B2 (priority 2011, dated 2016).

Assay [1] concerns the target T1, HCV genotype 1b (BK) NS3 modified enzyme with a R155K mutation (Hepatitis C virus genotype 1b, UniProt P26663, R1181K).
T1 construct: HCV genotype 1b (BK) NS3 modified enzyme
The experiment in a line: HCV NS3 protease time-resolved fluorescence (TRF) assay, genotype 1b R155K. It is filed as biochemical. The settings on record: Ki 1b R155K, genotype 1b (BK) NS3 R155K; single value. A digest of the protocol: (§1)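 Assay buffer: 50 mM HEPES pH 7.5, 150 mM NaCl, 0.1% PEG 8000, 0.15% Triton X-100. Ten-minute enzyme–inhibitor preincubation; substrate at 25 nM final; 6 h reaction, room temperature; signal/background set at 5-20 by enzyme amount.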

The target in assay [2] is HCV NS3 protease genotype 3a (3A-1) (Hepatitis C virus genotype 3a, UniProt Q81258). Nature of the assay: HCV NS3 protease time-resolved fluorescence (TRF) assay, genotype 3a. In kind it is biochemical. The following applies: Ki 3a. Summed up: as §1

One may read the Ki as a dissociation constant, usually derived from enzyme kinetics or from competition with a known ligand. Low readings indicate tighter binding, high ones weaker binding.

Turning to `C=C[C@@H]1C[C@]1(NC(=O)[C@@H]1C[C@@H]2CN1C(=O)[C@H](C1CCCCC1)NC(=O)O[C@@H]1C[C@H]1CCCCCc1c(nc3ccccc3c1OCCCN1CCC(S(C)(=O)=O)C1)O2)C(=O)NS(=O)(=O)C1(C)CC1` (stereo partly drawn) [Example 166, (1aR,5S,8S,10R,22aR)-5-cyclohexyl-N-[(1R,2S)-2-ethenyl-1-{[(1-methylcyclopropyl)sulfonyl]carbamoyl}cyclopropyl]-17-{3-[3-(methylsuflonyl)pyrrolidin-1-yl]propoxy}-3,6-dioxo-1,1a,3,4,5,9,10, 18,19,20,21,22,22a-tetradecahydro-8H-7,10-methanocyclopropa[18,19][1,10,3,6] dioxadiazacyclononadecino[11,12-b] quinoline-8-carboxamide], the Ki in assay [1] is 0.11 nM; in assay [2], 2.2 nM.

For the compound `C=C[C@@H]1C[C@]1(NC(=O)[C@@H]1C[C@@H]2CN1C(=O)[C@H](C(C)(C)C)NC(=O)O[C@@H]1C[C@H]1CCCCCc1c(nc3ccccc3c1OCCCN1CC(C#N)C1)O2)C(=O)NS(=O)(=O)C1(C)CC1` [Example 184, (1aR,5S,8S,10R,22aR)-5-tert-butyl-17-[3-(3-cyanoazetidin-1-yl)propoxy]-N-[(1R,2S)-2-ethenyl-1-{[(1-methylcyclopropyl)sulfonyl]carbamoyl}cyclopropyl]-3,6-dioxo-1,1a,3,4,5,6,9,10, 18,19,20,21,22,22a-tetradecahydro-8H-7,10-methanocyclopropa[18,19][1,10,3,6] dioxadiazacyclononadecino[11,12-b] quinoline-8-carboxamide], the Ki came out at 0.057 nM in assay [1] and 1.1 nM in assay [2].

In the case of `C=C[C@@H]1C[C@]1(NC(=O)[C@@H]1C[C@@H]2CN1C(=O)[C@H](C1CCCC1)NC(=O)O[C@@H]1CCC[C@H]1CC/C=C/Cc1c(nc3ccccc3c1OCCCn1cnnc1)O2)C(=O)NS(=O)(=O)C1(C)CC1` [Example 53, (3aR,7S,10S,12R,21E,24aS)-7-cyclopentyl-N-[(1R,2S)-2-ethenyl-1-{[(1-methylcyclopropyl)sulfonyl]carbamoyl}cyclopropyl]-5,8-dioxo-19-[3-(4H-1,2,4-triazol-4-yl)propoxy]-1,2,3,3a,5,6,7,8,11,12,20,23,24,24a-tetra decahydro-10H-9,12-methanocyclopenta[18,19][1,10,3,6] dioxadiazacyclononadecino[11,12-b] quinoline-10-carboxamide], the results for the inhibition constant (Ki) in assay [1] and in assay [2] were 0.11 nM and 0.55 nM, respectively.

For the compound `C=C[C@@H]1C[C@]1(NC(=O)[C@@H]1C[C@@H]2CN1C(=O)[C@H](C(C)(C)C)NC(=O)O[C@@H]1C[C@H]1CCCCCc1c(nc3ccccc3c1OCCCNC1CC1)O2)C(=O)NS(=O)(=O)C1(C)CC1` [Example 183, (1aR,5S,8S,10R,22aR)-5-tert-butyl-17-[3-(cyclopropylamino)propoxy]-N-[(1R,2S)-2-ethenyl-1-{[(1-methylcyclopropyl)sulfonyl]carbamoyl}cyclopropyl]-3,6-dioxo-1,1a,3,4,5,6,9,10, 18,19,20,21,22,22a-tetradeca hydro-8H-7,10-methanocyclopropa[18,19][1,10,3,6] dioxadiazacyclononadecino[11,12-b] quinoline-8-carboxamide], the Ki in assay [1] is 0.07 nM; in assay [2], 0.95 nM.

As for `C=C[C@@H]1C[C@]1(NC(=O)[C@@H]1C[C@@H]2CN1C(=O)[C@H](C(C)(C)C)NC(=O)O[C@@H]1C[C@H]1CCCCCc1c(nc3ccccc3c1OCC1CCN(CCOC)CC1)O2)C(=O)NS(=O)(=O)C1(C)CC1` [Example 228, (1aR,5S,8S,10R,22aR)-5-tert-butyl-N-[(1R,2S)-2-ethenyl-1-{[(1-methylcyclopropyl)sulfonyl]carbamoyl}cyclopropyl]-17-{[1-(2-methoxyethyl)piperidin-4-yl]methoxy}-3,6-dioxo-1,1a,3,4,5,6,9,10,18,19,20,21,22,22a-tetradecahydro-8H-7,10-methanocyclopropa[18,19][1,10,3,6] dioxadiazacyclononadecino[11,12-b]quinoline-8-carboxamide], the Ki was determined as 0.11 nM in assay [1] and 0.47 nM in assay [2].
